According to US11959486B2, “Stable liquid formulation of AMG 416 (etelcalcetide)” (AMGEN INC., priority 2013, dated 2024):

Columns and labels:
[1] = physchem; details: succinate buffered saline, pH 4.5
Protocol: In this study, the solubility of AMG 416 in succinate buffered-saline was investigated. […] After briefly vortexing, a clear solution was obtained with a nominal concentration of 400 mg/mL. Because expansion of the solution volume was not determined, the solubility of AMG 416 can be conservatively stated as at least 200 mg/mL. Although the maximal solubility was not determined in this experiment, AMG 416 is soluble in pH 4.5 succinate buffered saline to concentrations of at least 200 mg/mL.

[2] = Concentration dependent stability in 25 mM succinate-buffered saline pH 4.5, HPLC purity, with Arrhenius extrapolation (Example 2); type: physicochemical; details: for Degradation at 29 days, 40 C / Degradation at 29 days, RT: pH 4.5; for Predicted extent of degradation at 1 yr 5° C. / Predicted extent of degradation at 1 yr RT / Predicted extent of degradation at 2 yr 5° C. / Predicted extent of degradation at 2 yr RT: pH 4.5 SBS, from RT 29-day data
Protocol: In this study, the stability of AMG 416 over a range of concentrations in succinate-buffered saline (pH 4.5) was investigated. The solution of […] AMG 416 from Example 1, supra, was diluted further with 200 μL of succinate-buffered saline (pH 4.5) to a nominal concentration of 200 mg/mL, which was serially diluted with succinate-buffered saline (pH 4.5) to 66, 20, 6.7, 2.2 and 0.67 mg/mL. The samples were kept at room temperature (i.e., about 25° C.) and aliquots were analyzed by HPLC at intervals up to 29 days. A second series of AMG 416 samples covering the concentration range 20 to 0.67 mg/mL were incubated at 40° C. and analyzed in the same manner.
The room temperature 29-day data from Table 1 was extrapolated to the stated time period by assuming linear degradation kinetics. Room temperature data was extrapolated to 5° C. A 20° C. difference was assumed, equivalent to a 4-fold lower rate of degradation. Extrapolations were carried out using a simple application of the Arrhenius equation, where at 10° C. rise in temperature provides a 2-fold increase in reaction rate, assuming the same reaction mechanism and that activation energy for each relevant reaction is around 50 kJ/mol.
Comparison of the data shown in Tables 1 and 2 allows assessment of temperature increase as a tool to predict the long-term stability of AMG 416 solutions.

Question: Which solubility [1] does the source give for `CC(=O)N[C@H](CSSC[C@H](N)C(=O)O)C(=O)N[C@H](C)C(=O)N[C@H](CCCNC(=N)N)C(=O)N[C@H](CCCNC(=N)N)C(=O)N[C@H](CCCNC(=N)N)C(=O)N[C@H](C)C(=O)N[C@H](CCCNC(=N)N)C(N)=O` [AMG 416, N-acetyl-D-cysteinyl-D-alanyl-D-arginyl-D-arginyl-D-arginyl-D-alanyl-D-arginamide disulfide with L-cysteine] here?
Answer: ≥ 200 mg/mL

Question: What about the “Degradation at 29 days, 40 C” value ([2]; 0.67 mg/mL) of the same compound?
Answer: 5.0%

Question: What about the “Degradation at 29 days, RT” value ([2]; 0.67 mg/mL) of the same compound?
Answer: 0.1%

Question: And the “Predicted extent of degradation at 1 yr 5° C.” value ([2]; 0.67 mg/mL)?
Answer: 0.3%

Question: And the “Predicted extent of degradation at 1 yr RT” value (“Predicted extent … at 1 yr RT” below) ([2]; 0.67 mg/mL)?
Answer: 1.4%

Question: What about the “Predicted extent of degradation at 2 yr 5° C.” value ([2]; 0.67 mg/mL) of the same compound?
Answer: 0.7%

Question: What about the “Predicted extent of degradation at 2 yr RT” value (shortened to “Predicted extent … at 2 yr RT”) ([2]; 0.67 mg/mL) of the same compound?
Answer: 2.7%

Question: What about the “Degradation at 29 days, 40 C” value ([2]; 2.2 mg/mL) of the same compound?
Answer: 5.0%

Question: What about the “Degradation at 29 days, RT” value ([2]; 2.2 mg/mL) of the same compound?
Answer: 0.2%

Question: And the “Predicted extent of degradation at 1 yr 5° C.” value ([2]; 2.2 mg/mL)?
Answer: 0.7%

Question: And the “Predicted extent … at 1 yr RT” value ([2]; 2.2 mg/mL)?
Answer: 2.6%

Question: What about the “Predicted extent of degradation at 2 yr 5° C.” value ([2]; 2.2 mg/mL) of the same compound?
Answer: 1.3%

Question: What about the “Predicted extent … at 2 yr RT” value ([2]; 2.2 mg/mL) of the same compound?
Answer: 5.2%

Question: What about the “Degradation at 29 days, 40 C” value ([2]; 6.7 mg/mL) of the same compound?
Answer: 9.4%

Question: What about the “Degradation at 29 days, RT” value ([2]; 6.7 mg/mL) of the same compound?
Answer: 0.5%

Question: And the “Predicted extent of degradation at 1 yr 5° C.” value ([2]; 6.7 mg/mL)?
Answer: 1.7%

Question: What about the “Predicted extent … at 1 yr RT” value ([2]; 6.7 mg/mL) of the same compound?
Answer: 7.0%

Question: And the “Predicted extent of degradation at 2 yr 5° C.” value ([2]; 6.7 mg/mL)?
Answer: 3.5%

Question: And the “Predicted extent … at 2 yr RT” value ([2]; 6.7 mg/mL)?
Answer: 13.9%

Question: And the “Degradation at 29 days, 40 C” value ([2]; 20 mg/mL)?
Answer: 26.7%

Question: What about the “Degradation at 29 days, RT” value ([2]; 20 mg/mL) of the same compound?
Answer: 0.9%

Question: What about the “Predicted extent of degradation at 1 yr 5° C.” value ([2]; 20 mg/mL) of the same compound?
Answer: 2.6%

Question: And the “Predicted extent … at 1 yr RT” value ([2]; 20 mg/mL)?
Answer: 10.4%

Question: What about the “Predicted extent of degradation at 2 yr 5° C.” value ([2]; 20 mg/mL) of the same compound?
Answer: 5.2%

Question: And the “Predicted extent … at 2 yr RT” value ([2]; 20 mg/mL)?
Answer: 20.9%

Question: And the “Predicted extent of degradation at 1 yr 5° C.” value ([2]; 66 mg/mL)?
Answer: 25.0%

Question: And the “Predicted extent … at 1 yr RT” value ([2]; 66 mg/mL)?
Answer: >100%

Question: And the “Predicted extent of degradation at 2 yr 5° C.” value ([2]; 66 mg/mL)?
Answer: 50.1%

Question: What about the “Predicted extent … at 2 yr RT” value ([2]; 66 mg/mL) of the same compound?
Answer: >100%
